{"source": "patent US20220243210A1", "about": "“ANGIOTENSIN II TYPE 1 RECEPTOR TARGETED OLIGONUCLEOTIDES AND USES THEREOF” (Ionis Pharmaceuticals, Inc., priority 2019, published 2022)", "key": {"[1]": {"biological_target": "T1, human AGTR1 (Homo sapiens, UniProt P30556)", "T1 construct": "host or cells: HEK293 (HEK-AGTR1 FAP cells)", "T1 sequence (P30556 1-359)": "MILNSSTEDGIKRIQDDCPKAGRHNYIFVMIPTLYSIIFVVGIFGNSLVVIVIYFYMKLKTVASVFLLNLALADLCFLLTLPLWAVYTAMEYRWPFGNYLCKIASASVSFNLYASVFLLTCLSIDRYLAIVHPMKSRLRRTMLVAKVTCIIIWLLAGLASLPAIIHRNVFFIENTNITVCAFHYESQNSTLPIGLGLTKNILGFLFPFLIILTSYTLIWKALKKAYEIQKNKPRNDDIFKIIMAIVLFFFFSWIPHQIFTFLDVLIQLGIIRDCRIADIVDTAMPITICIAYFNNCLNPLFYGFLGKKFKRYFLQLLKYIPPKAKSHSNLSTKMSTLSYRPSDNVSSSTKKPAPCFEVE", "test": "AGTR1 signaling, IP-One Gq kit (IP1 accumulation), HEK-AGTR1 FAP cells", "assay_type": "cell-based", "conditions": "90 minutes", "method": "(§1) Activated AGTR1 couples to the Gαq subunit of heterotrimeric G proteins, which activates the phospholipase C (PLC) and subsequently inositol 1,4,5-trisphosphate (IP3) signaling cascade. AGTR1 signaling was measured using an IP-One Gq kit (cisbio #62IPAPEB). The kit detects the accumulation of inositol monophosphate (IP1), a stable downstream metabolite of IP3 induced by activation of a phospholipase C (PLC) cascade.\nAn additional control compound, AngII, which consists of the peptide motif […], was also tested. […] AGTR1 activation was measured using the IP-One Gq kit."}, "[2]": {"test_system": "HEK-APLNR FAP cells", "test": "IP1 accumulation negative control in HEK-APLNR FAP cells (do not express AGTR1)", "assay_type": "cell-based, human", "conditions": "24 hours", "method": "as §1\nAs a negative control, Compound Nos. 556089 and 1229761 were also tested in HEK293 cells expressing FAP tagged human Apelin receptor (HEK-APLNR FAP cells from Spectragenetics). […] HEK-APLNR FAP cells were cultured with Compound Nos. 556089 and 1229761, described herein above, at the concentrations detailed in Table 2 for 24 hours."}, "[3]": {"test_system": "human MALAT1 RNA", "test": "MALAT1 RNA reduction in HEK-AGTR1 FAP cells, free uptake, 24 hours", "assay_type": "cell-based", "conditions": "24 hours; for MALAT (% control): relative to untreated control cells", "method": "(§2) At the end of the treatment period, total RNA was isolated from the cells and MALAT1 RNA levels were measured by quantitative real-time PC&. […] MALAT1 RNA levels were normalized according to total RNA content, as measured by RIBOGREEN®. Reduction of MALAT1 RNA is presented Table 3 below as percent MALAT1 RNA amount relative to untreated control (UTC) cells. The half maximal inhibitory concentration (IC50) of each modified oligonucleotide was calculated using a non-linear fit [inhibitor] vs. response—variable slope (four parameters) formula in GraphPad Prism 7.01."}, "[4]": {"test_system": "human MALAT1 RNA", "test": "MALAT1 RNA reduction in HEK-AGTR1 FAP cells, free uptake, 48 hours", "assay_type": "cell-based", "conditions": "48 hours; for MALAT (% control): relative to untreated control cells", "method": "as §2, with “PCR.” for “PC&.”, “Reduction of MALAT1 RNA is presented Table 3 below as percent MALAT1 RNA amount relative to untreated control (UTC) cells.” left out, “response-variable” for “response—variable”, “(three” for “(four”"}, "[5]": {"test_system": "mouse MALAT RNA", "test": "MALAT RNA reduction in vivo, C57BL6/J mice, multiple dose", "conditions": "for ED50: IV day 0, 4, 8", "method": "Compound Nos. 556089, 1229761, and 1229762 are described in Table 1 above. Compound Nos. 556089, 1229761, and 1229762 were tested in C57BL6/J mice. The mice were divided into groups of 4 mice each. […] The mice were then sacrificed on day 12. Heart, adipose, adrenal, kidney, and liver tissue was then collected and homogenized and RNA analysis was performed. A group of 4 mice received PBS as a negative control.\nRNA was extracted from heart, adipose, adrenal, kidney, and liver tissue for real-time PCR analysis of measurement of RNA expression of MALAT using primer probe set mMALAT1 #2 (forward sequence […] (SEQ ID NO: 5); reverse sequence […] (SEQ ID NO: 6); probe sequence […] (SEQ ID NO: 7)). Results are presented as percent change of RNA, relative to PBS control, normalized to mouse GAPDH."}}, "note": "Oligonucleotides are written 5' to 3', each unit as a sugar letter and its base; * is a phosphorothioate linkage, no mark a phosphodiester; rarer units and linkages stand in square brackets, end groups in braces. Plain capitals give the bases only. k = constrained ethyl (cEt); [5mC] = 5-methylcytosine; d = 2'-deoxy (DNA)", "data": [{"substance": "Compound No. 556089: Control unconjugated parent modified oligonucleotide GCATTCTAATAGCAGC, cEt gapmer, phosphorothioate, complementary to mouse MALAT1 RNA (kG*k[5mC]*kA*dT*dT*d[5mC]*dT*dA*dA*dT*dA*dG*d[5mC]*kA*kG*k[5mC]) [reference compound]", "values": [{"measurement": "IP1 accumulation", "setting": "[1]; 0.0256 nM", "value": 696, "unit": "nM"}, {"measurement": "IP1 accumulation", "setting": "[1]; 0.128 nM", "value": 669, "unit": "nM"}, {"measurement": "IP1 accumulation", "setting": "[1]; 0.64 nM", "value": 692, "unit": "nM"}, {"measurement": "IP1 accumulation", "setting": "[1]; 3.2 nM", "value": 658, "unit": "nM"}, {"measurement": "IP1 accumulation", "setting": "[1]; 16 nM", "value": 646, "unit": "nM"}, {"measurement": "IP1 accumulation", "setting": "[1]; 80 nM", "value": 605, "unit": "nM"}, {"measurement": "IP1 accumulation", "setting": "[1]; 400 nM", "value": 648, "unit": "nM"}, {"measurement": "IP1 accumulation", "setting": "[1]; 2000 nM", "value": 672, "unit": "nM"}, {"measurement": "IP1 accumulation", "setting": "[2]; 0.0256 nM", "value": 584, "unit": "nM"}, {"measurement": "IP1 accumulation", "setting": "[2]; 0.128 nM", "value": 536, "unit": "nM"}, {"measurement": "IP1 accumulation", "setting": "[2]; 0.64 nM", "value": 563, "unit": "nM"}, {"measurement": "IP1 accumulation", "setting": "[2]; 3.2 nM", "value": 538, "unit": "nM"}, {"measurement": "IP1 accumulation", "setting": "[2]; 16 nM", "value": 526, "unit": "nM"}, {"measurement": "IP1 accumulation", "setting": "[2]; 80 nM", "value": 514, "unit": "nM"}, {"measurement": "IP1 accumulation", "setting": "[2]; 400 nM", "value": 553, "unit": "nM"}, {"measurement": "IP1 accumulation", "setting": "[2]; 2000 nM", "value": 542, "unit": "nM"}, {"measurement": "MALAT (% control)", "setting": "[3]; 12 nM", "value": 86, "unit": "% control"}, {"measurement": "MALAT (% control)", "setting": "[3]; 37 nM", "value": 98, "unit": "% control"}, {"measurement": "MALAT (% control)", "setting": "[3]; 111 nM", "value": 91, "unit": "% control"}, {"measurement": "MALAT (% control)", "setting": "[3]; 333 nM", "value": 63, "unit": "% control"}, {"measurement": "MALAT (% control)", "setting": "[3]; 1000 nM", "value": 60, "unit": "% control"}, {"measurement": "MALAT (% control)", "setting": "[3]; 3000 nM", "value": 36, "unit": "% control"}, {"measurement": "MALAT (% control)", "setting": "[3]; 9000 nM", "value": 29, "unit": "% control"}, {"measurement": "IC50", "setting": "[3]; MALAT1 RNA, four parameter fit", "value": 0.85, "unit": "µM"}, {"measurement": "MALAT (% control)", "setting": "[4]; 2.7 nM", "value": 97, "unit": "% control"}, {"measurement": "MALAT (% control)", "setting": "[4]; 8.2 nM", "value": 100, "unit": "% control"}, {"measurement": "MALAT (% control)", "setting": "[4]; 24.7 nM", "value": 104, "unit": "% control"}, {"measurement": "MALAT (% control)", "setting": "[4]; 74.1 nM", "value": 99, "unit": "% control"}, {"measurement": "MALAT (% control)", "setting": "[4]; 222.2 nM", "value": 82, "unit": "% control"}, {"measurement": "MALAT (% control)", "setting": "[4]; 666.7 nM", "value": 68, "unit": "% control"}, {"measurement": "MALAT (% control)", "setting": "[4]; 2000 nM", "value": 43, "unit": "% control"}, {"measurement": "MALAT (% control)", "setting": "[4]; 6000 nM", "value": 25, "unit": "% control"}, {"measurement": "MALAT (% control)", "setting": "[4]; .10 nM", "value": 104, "unit": "% control"}, {"measurement": "MALAT (% control)", "setting": "[4]; .3 nM", "value": 106, "unit": "% control"}, {"measurement": "MALAT (% control)", "setting": "[4]; .9 nM", "value": 101, "unit": "% control"}, {"measurement": "IC50", "setting": "[4]; MALAT1 RNA, three parameter fit", "value": 1.53, "unit": "µM"}, {"measurement": "MALAT-1 RNA (% control)", "setting": "[5]; Adipose, 0.4 μmol/kg IV day 0, 4, 8, sacrifice day 12, relative to PBS", "value": 68.4, "unit": "% control"}, {"measurement": "MALAT-1 RNA (% control)", "setting": "[5]; Adipose, 1.2 μmol/kg IV day 0, 4, 8, sacrifice day 12, relative to PBS", "value": 41.1, "unit": "% control"}, {"measurement": "MALAT-1 RNA (% control)", "setting": "[5]; Adipose, 3.6 μmol/kg IV day 0, 4, 8, sacrifice day 12, relative to PBS", "value": 27.3, "unit": "% control"}, {"measurement": "ED50", "setting": "[5]; Adipose", "value": 0.034, "unit": "µmol/kg"}, {"measurement": "MALAT-1 RNA (% control)", "setting": "[5]; Adrenal, 0.4 μmol/kg IV day 0, 4, 8, sacrifice day 12, relative to PBS", "value": 95.2, "unit": "% control"}, {"measurement": "MALAT-1 RNA (% control)", "setting": "[5]; Adrenal, 1.2 μmol/kg IV day 0, 4, 8, sacrifice day 12, relative to PBS", "value": 75.7, "unit": "% control"}, {"measurement": "MALAT-1 RNA (% control)", "setting": "[5]; Adrenal, 3.6 μmol/kg IV day 0, 4, 8, sacrifice day 12, relative to PBS", "value": 64.1, "unit": "% control"}, {"measurement": "ED50", "setting": "[5]; Adrenal", "value": 1.102, "unit": "µmol/kg"}, {"measurement": "MALAT-1 RNA (% control)", "setting": "[5]; Heart, 0.4 μmol/kg IV day 0, 4, 8, sacrifice day 12, relative to PBS", "value": 76.7, "unit": "% control"}, {"measurement": "MALAT-1 RNA (% control)", "setting": "[5]; Heart, 1.2 μmol/kg IV day 0, 4, 8, sacrifice day 12, relative to PBS", "value": 74.7, "unit": "% control"}, {"measurement": "MALAT-1 RNA (% control)", "setting": "[5]; Heart, 3.6 μmol/kg IV day 0, 4, 8, sacrifice day 12, relative to PBS", "value": 45.7, "unit": "% control"}, {"measurement": "ED50", "setting": "[5]; Heart", "value": 4.11, "unit": "µmol/kg"}, {"measurement": "MALAT-1 RNA (% control)", "setting": "[5]; Kidney, 0.4 μmol/kg IV day 0, 4, 8, sacrifice day 12, relative to PBS", "value": 50.0, "unit": "% control"}, {"measurement": "MALAT-1 RNA (% control)", "setting": "[5]; Kidney, 1.2 μmol/kg IV day 0, 4, 8, sacrifice day 12, relative to PBS", "value": 46.7, "unit": "% control"}, {"measurement": "MALAT-1 RNA (% control)", "setting": "[5]; Kidney, 3.6 μmol/kg IV day 0, 4, 8, sacrifice day 12, relative to PBS", "value": 24.6, "unit": "% control"}, {"measurement": "ED50", "setting": "[5]; Kidney", "value": 3.535, "unit": "µmol/kg"}, {"measurement": "MALAT-1 RNA (% control)", "setting": "[5]; Liver, 0.4 μmol/kg IV day 0, 4, 8, sacrifice day 12, relative to PBS", "value": 35.8, "unit": "% control"}, {"measurement": "MALAT-1 RNA (% control)", "setting": "[5]; Liver, 1.2 μmol/kg IV day 0, 4, 8, sacrifice day 12, relative to PBS", "value": 24.1, "unit": "% control"}, {"measurement": "MALAT-1 RNA (% control)", "setting": "[5]; Liver, 3.6 μmol/kg IV day 0, 4, 8, sacrifice day 12, relative to PBS", "value": 7.2, "unit": "% control"}, {"measurement": "ED50", "setting": "[5]; Liver", "value": 1.578, "unit": "µmol/kg"}]}]}
